In one assay the target is T1, PDE4C (Homo sapiens, UniProt Q08493).
T1 construct: purchased MDS PHARMA
The assay is described as follows: PDE4C inhibition, IMAP fluorescence polarization protocol. The format is biochemical. As for the experimental part:
(§1) The enzymatic reactions were carried at room temperature in a 96-well black plate by co-incubating 25 μL of 200 nM FAM-cAMP (R7513), 5 μL of putative inhibitory compounds and 20 μL of the PDE4 isoform dissolved in assay buffer (R7364) for 1 h. All enzymes were obtained from human recombinant sources (MDS PHARMA), whereas the other reagents were purchased from Molecular Devices. […] PDE4 inhibitors were dissolved in dimethyl sulfoxide (DMSO) at a final concentration of 0.1%.
(§2) The inhibitory activities of the new sulfonamide derivatives were evaluated for their selectivity against the four isoforms of human PDE4, i.e. PDE4A, PDE4B, PDE4C, and PDE4D, using an IMAP-FP protocol.
Background: Fluorescence polarisation rises when a labelled molecule tumbles more slowly, as on binding a larger partner.

For the next assay, the target named is T2, PDE4D (Homo sapiens, UniProt Q08499).
T2 construct: purchased MDS PHARMA
T2 sequence (Q08499 1-673 isoform Q08499-2): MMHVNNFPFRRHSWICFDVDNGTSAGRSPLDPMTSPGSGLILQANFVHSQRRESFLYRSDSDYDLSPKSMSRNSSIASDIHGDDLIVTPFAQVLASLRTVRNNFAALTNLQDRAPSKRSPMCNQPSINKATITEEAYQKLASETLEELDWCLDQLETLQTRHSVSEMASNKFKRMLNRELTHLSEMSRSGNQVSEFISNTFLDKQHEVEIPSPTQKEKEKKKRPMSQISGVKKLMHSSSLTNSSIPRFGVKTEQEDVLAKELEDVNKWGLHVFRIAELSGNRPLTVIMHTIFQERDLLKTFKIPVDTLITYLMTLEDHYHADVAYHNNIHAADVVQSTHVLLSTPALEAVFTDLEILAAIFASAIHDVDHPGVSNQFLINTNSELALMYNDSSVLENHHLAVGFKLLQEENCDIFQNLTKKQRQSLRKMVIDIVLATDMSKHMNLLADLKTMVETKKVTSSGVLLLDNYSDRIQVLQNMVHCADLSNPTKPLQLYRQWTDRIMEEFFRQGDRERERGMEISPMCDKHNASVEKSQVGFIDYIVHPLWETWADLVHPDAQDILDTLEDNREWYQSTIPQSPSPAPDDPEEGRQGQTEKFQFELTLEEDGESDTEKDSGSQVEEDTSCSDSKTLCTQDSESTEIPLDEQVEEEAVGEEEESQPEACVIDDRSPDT
The assay is described as follows: PDE4D inhibition, IMAP fluorescence polarization protocol. The format is biochemical. As for the experimental part: as §1, §2

[1] abbreviates: 1 μM, mean ± SEM, 3 experiments.
Where [2] appears, read: recombinant enzyme, mean ± SEM of three measurements.

T1 sequence (Q08493 whole entry): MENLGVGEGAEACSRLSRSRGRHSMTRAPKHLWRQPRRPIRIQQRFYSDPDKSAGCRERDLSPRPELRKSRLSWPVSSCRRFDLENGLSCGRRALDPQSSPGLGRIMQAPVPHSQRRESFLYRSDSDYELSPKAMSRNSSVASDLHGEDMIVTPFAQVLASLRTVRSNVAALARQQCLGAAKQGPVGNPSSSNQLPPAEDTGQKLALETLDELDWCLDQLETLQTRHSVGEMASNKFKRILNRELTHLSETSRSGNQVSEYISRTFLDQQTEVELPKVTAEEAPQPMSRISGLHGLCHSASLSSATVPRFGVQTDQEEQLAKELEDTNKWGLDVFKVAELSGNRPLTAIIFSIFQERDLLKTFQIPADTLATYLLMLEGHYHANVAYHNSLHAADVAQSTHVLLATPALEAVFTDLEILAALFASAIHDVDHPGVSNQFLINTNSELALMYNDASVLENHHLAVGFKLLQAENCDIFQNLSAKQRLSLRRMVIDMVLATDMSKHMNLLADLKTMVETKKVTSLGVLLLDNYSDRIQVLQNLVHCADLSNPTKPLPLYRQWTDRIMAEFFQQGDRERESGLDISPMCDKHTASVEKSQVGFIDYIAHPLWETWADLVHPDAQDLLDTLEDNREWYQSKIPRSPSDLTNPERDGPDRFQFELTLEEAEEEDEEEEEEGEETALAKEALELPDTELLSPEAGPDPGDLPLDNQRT

Usually inhibition stands for how much of the control response was suppressed. What is called IC50 is the concentration needed to halve the response being measured. As for `COc1ccc(CCNS(=O)(=O)c2cc3c(cc2C)OCO3)cc1OC` [6a (LASSBio-448), N-(3,4-dimethoxyphenethyl)-6-methylbenzo[d][1, 3]dioxole-5-sulfonamide], on PDE4C (setting [1]), the PDE4C inhibition entry was “able to inhibit” and the inhibition at 1 µM turned out to be 33.7 ± 0.4%. Also, at PDE4C (setting [2]), the IC50 was 1100 ± 130 nM. In addition, the inhibition at 1 µM on PDE4D (1 μM, mean ± SEM, 3 experiments, read-out: PDE4D3 inhibition) was found to be 26.5 ± 0.7%. Also, on PDE4D (ratio of IC50 values), the “selective inhibitory index (SI) PDE4D/PDE4A” value was found to be 6.7 and the “selective inhibitory index (SI) PDE4D/PDE4B” value is 3.3. Further, the 50% inhibitory concentration (IC50) on PDE4D (setting [2]) was 4700 ± 90 nM.

Values taken from PMC5047629, “Synthesis, Pharmacological Profile and Docking Studies of New Sulfonamides Designed as Phosphodiesterase-4 Inhibitors” (PLoS ONE, 2016).
